Source: patent US20250145585A1, “HETEROCYCLIC INHIBITORS OF IGF-1R FOR TREATMENT OF DISEASE” (HORIZON THERAPEUTICS IRELAND DAC, priority 2023, published 2025)

How the values were obtained:
IGF-1R [1] = biological target: T1, IGF-1R (Homo sapiens, UniProt P08069); assay: Example B-1: IGF-1R Assay (PC3 cells stimulated with IGF1, AlphaLISA on cell lysates); type: cell-based; settings: compound two hours, IGF1 200 ng/mL for 30 min, read-out: IC50, Biological Activity against IGF-1R (Table B1)
T1 construct: expressed in transfected cells
In short: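 PC3 cells serum-starved 2 h, treated 2 h with 3-fold serially diluted compound, then stimulated 30 min with IGF1 (200 ng/mL final). Lysates analysed by AlphaLISA; % inhibition calculated relative to vehicle and EC80 controls, IC50 derived.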

IGF-1R [2] = biological target: T1, IGF-1R; assay: Example B-2: IGF-1R Assay (PathHunter cell lines, EC80 agonist challenge, chemiluminescent detection); type: cell-based; settings: PathHunter cells, compound 60 minutes at 37° C., EC80 agonist 3 hours; read-out: IC50, Biological Activity against IGF-1R (Table B2)
In short: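 PathHunter cells were pre-incubated with compound for 60 min at 37° C (1% vehicle), then challenged with EC80 agonist for 3 h at room temperature. Chemiluminescent detection after 1 h gave % inhibition relative to EC80 and vehicle controls, from which IC50 was derived.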

T1 sequence (P08069 31-1367): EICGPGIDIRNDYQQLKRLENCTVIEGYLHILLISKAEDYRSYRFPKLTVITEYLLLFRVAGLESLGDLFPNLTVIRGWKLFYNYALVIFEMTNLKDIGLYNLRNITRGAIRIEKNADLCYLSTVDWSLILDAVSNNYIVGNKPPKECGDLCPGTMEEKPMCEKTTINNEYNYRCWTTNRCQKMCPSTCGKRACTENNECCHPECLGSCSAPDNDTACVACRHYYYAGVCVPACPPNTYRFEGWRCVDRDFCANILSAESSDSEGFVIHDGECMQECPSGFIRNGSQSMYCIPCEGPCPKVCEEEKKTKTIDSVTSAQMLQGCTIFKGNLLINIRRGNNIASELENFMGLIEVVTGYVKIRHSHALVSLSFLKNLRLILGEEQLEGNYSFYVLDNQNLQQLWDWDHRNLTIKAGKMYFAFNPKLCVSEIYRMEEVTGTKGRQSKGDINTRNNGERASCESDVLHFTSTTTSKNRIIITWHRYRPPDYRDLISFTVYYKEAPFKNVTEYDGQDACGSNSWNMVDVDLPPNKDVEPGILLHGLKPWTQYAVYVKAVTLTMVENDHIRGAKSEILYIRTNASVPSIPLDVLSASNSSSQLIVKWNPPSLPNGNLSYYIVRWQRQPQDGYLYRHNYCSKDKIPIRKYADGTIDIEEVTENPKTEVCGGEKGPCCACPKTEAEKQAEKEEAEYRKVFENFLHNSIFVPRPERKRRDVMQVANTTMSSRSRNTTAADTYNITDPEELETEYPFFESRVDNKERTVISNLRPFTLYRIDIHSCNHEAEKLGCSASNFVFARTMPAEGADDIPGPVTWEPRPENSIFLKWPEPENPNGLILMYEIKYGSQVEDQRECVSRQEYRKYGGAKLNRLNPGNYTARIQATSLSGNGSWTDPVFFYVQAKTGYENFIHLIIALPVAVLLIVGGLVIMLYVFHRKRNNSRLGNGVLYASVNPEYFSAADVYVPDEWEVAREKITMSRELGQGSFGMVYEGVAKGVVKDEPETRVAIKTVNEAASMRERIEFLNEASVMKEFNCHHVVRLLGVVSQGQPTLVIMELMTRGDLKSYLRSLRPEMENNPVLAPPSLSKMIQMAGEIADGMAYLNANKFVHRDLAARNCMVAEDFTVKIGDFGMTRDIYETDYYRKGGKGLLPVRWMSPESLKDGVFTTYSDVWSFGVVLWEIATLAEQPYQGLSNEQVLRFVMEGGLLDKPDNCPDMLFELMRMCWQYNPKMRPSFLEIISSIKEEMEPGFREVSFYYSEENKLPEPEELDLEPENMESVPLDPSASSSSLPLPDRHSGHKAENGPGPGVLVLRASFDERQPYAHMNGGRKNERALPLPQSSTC

## CC1(C)C(=O)N(c2ccc(C3(C(F)(F)F)CC3)cc2)C(=O)N1Cc1ccnc(NCCS(C)(=O)=O)c1 [Compound 137, 5,5-dimethyl-1-((2-((2-(methylsulfonyl)ethyl)amino)pyridin-4-yl)methyl)-3-(4-(1-(trifluoromethyl)cyclopropyl)phenyl) imidazolidine-2,4-dione]
IGF-1R [1]
  IC50: ≤ 500 nM
IGF-1R [2]
  IC50: ≤ 500 nM

## CC1(Nc2cc(CN3C(=O)N(c4ccc(C5(C(F)(F)F)CC5)cc4)C(=O)C3(C)C)ccn2)CC1 [Compound 138, 5,5-dimethyl-1-((2-((1-methylcyclopropyl)amino)pyridin-4-yl)methyl)-3-(4-(1-(trifluoromethyl)cyclopropyl)phenyl) imidazolidine-2,4-dione]
IGF-1R [1]
  IC50: ≤ 500 nM
IGF-1R [2]
  IC50: ≤ 500 nM

## C[C@@H](CC#N)Nc1cc(CN2C(=O)N(c3ccc(C4(C(F)(F)F)CC4)cc3)C(=O)C2(C)C)ccn1 [Compound 139, (S)-3-((4-((5,5-dimethyl-2,4-dioxo-3-(4-(1-(trifluoromethyl)cyclopropyl)phenyl)imidazolidin-1-yl)methyl)pyridin-2-yl)amino)butanenitrile]
IGF-1R [1]
  IC50: ≤ 500 nM
IGF-1R [2]
  IC50: ≤ 500 nM

## CC(C)Nc1cc(CN2C(=O)N(c3ccc4c(c3)N(C)C(=O)C43CC3)C(=O)C2(C)C)ccn1 [Compound 185, 1-((2-(isopropylamino)pyridin-4-yl)methyl)-5,5-dimethyl-3-(1′-methyl-2′-oxospiro[cyclopropane-1,3′-indolin]-6′-yl)imidazolidine-2,4-dione]
IGF-1R [1]
  IC50: 2000 to 10000 nM
IGF-1R [2]
  IC50: 2000 to 10000 nM

## CC(C)Nc1cc(CN2C(=O)N(c3ccc4c(c3)C(=O)N(C)C4(C)C)C(=O)C2(C)C)ccn1 [Compound 186, 1-((2-(isopropylamino)pyridin-4-yl)methyl)-5,5-dimethyl-3-(1,1,2-trimethyl-3-oxoisoindolin-5-yl)imidazolidine-2,4-dione]
IGF-1R [1]
  IC50: 2000 to 10000 nM
IGF-1R [2]
  IC50: 2000 to 10000 nM

## CC(C)Nc1cc(CN2C(=O)N(c3ccc4c(c3)NC(=O)C43CC3)C(=O)C2(C)C)ccn1 [Compound 187, 1-((2-(isopropylamino)pyridin-4-yl)methyl)-5,5-dimethyl-3-(2′-oxospiro[cyclopropane-1,3′-indolin]-6′-yl)imidazolidine-2,4-dione]
IGF-1R [1]
  IC50: 2000 to 10000 nM
IGF-1R [2]
  IC50: 2000 to 10000 nM

## CC(C)Nc1cc(CN2C(=O)N(c3ccc4c(c3)N(C)CC4(C)C)C(=O)C2(C)C)ccn1 [Compound 188, 1-((2-(isopropylamino)pyridin-4-yl)methyl)-5,5-dimethyl-3-(1,3,3-trimethylindolin-6-yl)imidazolidine-2,4-dione]
IGF-1R [1]
  IC50: ≤ 500 nM
IGF-1R [2]
  IC50: ≤ 500 nM

## CC(C)Nc1cc(CN2C(=O)N(c3ccc4c(c3)OCC4(C)C)C(=O)C2(C)C)ccn1 [Compound 189, 3-(3,3-dimethyl-2,3-dihydrobenzofuran-6-yl)-1-((2-(isopropylamino)pyridin-4-yl)methyl)-5,5-dimethylimidazolidine-2,4-dione]
IGF-1R [1]
  IC50: ≤ 500 nM
IGF-1R [2]
  IC50: ≤ 500 nM

## CC(C)Nc1cc(CN2C(=O)N(c3ccc4c(c3)S(=O)(=O)CC4(C)C)C(=O)C2(C)C)ccn1 [Compound 190, 3-(3,3-dimethyl-1,1-dioxido-2,3-dihydrobenzo[b]thiophen-6-yl)-1-((2-(isopropylamino)pyridin-4-yl)methyl)-5,5-dimethylimidazolidine-2,4-dione]
IGF-1R [1]
  IC50: 2000 to 10000 nM
IGF-1R [2]
  IC50: 2000 to 10000 nM

## CC(C)Nc1cc(CN2C(=O)N(c3ccc4c(c3)N(C)CC43CCC3)C(=O)C2(C)C)ccn1 [Compound 191, 1-((2-(isopropylamino)pyridin-4-yl)methyl)-5,5-dimethyl-3-(1′-methylspiro[cyclobutane-1,3′-indolin]-6′-yl)imidazolidine-2,4-dione]
IGF-1R [1]
  IC50: ≤ 500 nM
IGF-1R [2]
  IC50: ≤ 500 nM

## Cn1nc(C(F)(F)F)c2ccc(N3C(=O)N(Cc4ccnc(N)c4)C(C)(C)C3=O)cc21 [Compound 255, 1-((2-aminopyridin-4-yl)methyl)-5,5-dimethyl-3-(1-methyl-3-(trifluoromethyl)-1H-indazol-6-yl)imidazolidine-2,4-dione]
IGF-1R [1]
  IC50: 500 to 2000 nM
IGF-1R [2]
  IC50: 2000 to 10000 nM
